Patent publication US20040077664A1, “Pharmaceutical formulation comprising pyrazolo[4,3-d]pyrimidine and nitrates or thienopyrimidines and nitrates” (priority 2001, published 2004)
Where a name gives a salt, the structure may show the parent alone.

Row | SMILES | melting point [°C]
1 | COc1ccc(CNc2nc(CCC(=O)O)nc3sc4c(c23)CCCC4)cc1Cl (as salt: salt) [Example 2 (formula I-I), 3-[4-(3-chloro-4-methoxybenzylamino)-5,6,7,8-tetrahydro-[1]-benzothieno[2,3-d]pyrimidin-2-yl]propionic acid] | 135
2 | CCCc1nn(C)c2c(NCc3ccc(OC)c(Cl)c3)nc(CCC(=O)O)nc12 [Example 2 (formula I), 3-[7-(3-chloro-4-methoxybenzylamino)-1-methyl-3-propyl-1H-pyrazolo-[4,3-d]pyrimidin-5-yl]propionic acid] | 178
3 | COc1ccc(CNc2nc(CCC(=O)O)nc3sc4c(c23)CCCC4)cc1Cl [Example 2 (formula I-I), 3-[4-(3-chloro-4-methoxybenzylamino)-5,6,7,8-tetrahydro-[1]-benzothieno[2,3-d]pyrimidin-2-yl]propionic acid] | 229
4 | COc1ccc(CNc2nc(CCC(=O)O)nc3sc4ccccc4c23)cc1Cl [Example 2 (formula I-II), 3-[4-(3-chloro-4-methoxybenzylamino)benzothieno[2,3-d]pyrimidin-2-yl]propionic acid] | 218
5 | COC(=O)c1ccc(-c2nc(NCc3ccc(OC)c(Cl)c3)c3c(n2)sc2ccccc23)cc1 [Example 3 (formula I-II), methyl 4-[4-(3-chloro-4-methoxybenzylamino)-[1]-benzothieno[2,3-d]pyrimidin-2-yl]benzoate] | 203 to 204
